In US9493466B2, “Treatment of cancer with TOR kinase inhibitors” (Signal Pharmaceuticals, LLC, priority 2011, dated 2016):
Read-outs that look alike come from different tables or passages of the source.

Experiments:
[1] = system: CAG; experiment: Cell proliferation and viability assay for MM lines; type: cell-based; details: 5 days, 7AAD FACS
Procedure: (§1) Cell Proliferation and Viability Assay for MM Lines. Prior to use, cells were washed and maintained in medium for 5 days. Cells were seeded out at a density of 0.3×10^6 cells/mL in a 12-well plate and treated with Compound 1 or Compound 2 for 5 days. 7AAD detection fluorescence-activated cell sorting (FACS) flow cytometry was used in the analysis.

[2] = system: LP-1; experiment: as above; type: cell-based; details: LP-1, 5 days, 7AAD FACS
Procedure: as §1

[3] = system: RPMI; experiment: as above; type: cell-based; details: 5 days, 7AAD FACS
Procedure: as §1

[4] = system: U266; experiment: as above; type: cell-based; details: U266, 5 days, 7AAD FACS
Procedure: as §1

[5] = system: DF15; experiment: as above; type: cell-based; details: DF15, 5 days, 7AAD FACS
Procedure: as §1

[6] = system: OPM2; experiment: as above; type: cell-based; details: OPM2, 5 days, 7AAD FACS
Procedure: as §1

[7] = system: KMS34; experiment: as above; type: cell-based; details: KMS34, 5 days, 7AAD FACS
Procedure: as §1

[8] = system: MM1.S; experiment: as above; type: cell-based; details: 5 days, 7AAD FACS
Procedure: as §1

[9] = system: H929; experiment: as above; type: cell-based; details: H929, 5 days, 7AAD FACS
Procedure: as §1

[10] = system: U87MG-Luc cells; experiment: U87MG intracranial glioblastoma model; type: in vivo, Nude mice; details: up to 6 weeks
Procedure: U87MG Intracranial Glioblastoma Model (Compound 1). An intracranial glioblastoma study was conducted with U87MG cells transfected with luciferase (U87-MG-Luc). Nude mice were inoculated intracranially with U87MG-Luc cells into the brain. Following inoculation of animals, the tumors were allowed to grow for 7 days. On day 7 following tumor cell inoculation, the mice were imaged using Xenogen imaging system. The mice having tumors with an average flux ranging between 6.29×10^7 and 1.59×10^8 photons/sec were pooled together and randomized into various treatment groups. Compound 1 was formulated in 0.5% CMC and 0.25% Tween 80 in water (as a suspension). The animals were orally administered vehicle (CMC-Tween) or Compound 1 once daily (QD) for up to 6 weeks. Doses of Compound 1 ranged between 2.5 and 20 mg/kg. The positive control Temozolomide (10 mg/kg, QD) was administered via intra peritoneal (IP) route. Temozolomide was formulated in 5% N-methylpyrrolidone, 45% PEG400 and 50% saline. The animals were imaged for bioluminescence once a week using Xenogen imaging system and monitored for survival. Statistical analysis was performed using a log-rank test between Compound-treated and vehicle-treated control groups.
U87MG Intracranial Glioblastoma Model (Compound 2). […] The animals were imaged for bioluminescence once a week using Xenogen imaging system and monitored for survival. […]

[11] = system: NHL cell lines; experiment: Apoptosis assay for NHL lines (panel statement); type: cell-based; details: multiple NHL cell lines in vitro; FIG. 2
Procedure: Apoptosis Assay for NHL Lines. Prior to testing, cells were grown and expanded in culture flasks to provide sufficient amounts of starting material. Cells were then diluted to their desired densities and added directly to compound-spotted 384-well plates. Cells were allowed to grow for 24 hours in 5% CO2 at 37° C. The apoptotic response was assessed by quantifying the activities of caspase 3 and caspase 7 (Caspase 3/7-Glo) in treated cells and control cells at the 24-hour time point. All data was normalized and represented as a value relative to the DMSO-treated cells. Results were then expressed as CalX, which is the minimum compound concentration required to double the levels of caspase 3/7 relative to those of the DMSO-treated cells during their treatment period.

[12] = 120 h, read-out: IC50, Proliferation
[13] = 120 h, read-out: IC50, Viability
[14] = Homo sapiens, 120 h, read-out: IC50, Viability

CO[C@H]1CC[C@H](N2C(=O)CNc3ncc(-c4ccc(C(C)(C)O)nc4)nc32)CC1 [Compound 1, 7-(6-(2-hydroxypropan-2-yl)pyridin-3-yl)-1-((1r,4r)-4-methoxycyclohexyl)-3,4-dihydropyrazino-[2,3-b]pyrazin-2(1H)-one]
IC50 ([1]; read-out: IC50, Proliferation): 0.8 µM | IC50 ([1]; read-out: IC50, Viability): 2.6 µM | IC50 ([2]; read-out: IC50, Proliferation): 0.22 µM | IC50 ([3]; read-out: IC50, Proliferation): 0.17 µM | IC50 ([3]; read-out: IC50, Viability): 1.1 µM | IC50 ([4]; read-out: IC50, Proliferation): 0.56 µM | IC50 ([5]; read-out: IC50, Proliferation): 0.1 µM | IC50 ([5]; read-out: IC50, Viability): 0.85 µM | IC50 ([6]; read-out: IC50, Proliferation): 0.33 µM | IC50 ([6]; read-out: IC50, Viability): 0.6 µM | IC50 ([7]; read-out: IC50, Proliferation): 0.1 µM | IC50 ([7]; read-out: IC50, Viability): 0.42 µM | IC50 ([8]; read-out: IC50, Proliferation): 0.44 µM | IC50 ([8]; read-out: IC50, Viability): 1.01 µM | IC50 ([9]; read-out: IC50, Proliferation): 0.19 µM | IC50 ([9]; read-out: IC50, Viability): 0.73 µM | survival ([10]; 2.5 to 20 mg/kg QD oral, FIG. 14): significantly prolonged the life | apoptosis induction [11]: induce apoptosis

CCN1C(=O)CNc2ncc(-c3ccc(-c4nc[nH]n4)nc3C)nc21 [Compound 2, 1-ethyl-7-(2-methyl-6-(1H-1,2,4-triazol-3-yl)pyridin-3-yl)-3,4-dihydropyrazino[2,3-b]pyrazin-2(1H)-one]
IC50 [1, 12]: 0.41 µM | IC50 [1, 13]: 1.5 µM | IC50 ([2]; Homo sapiens, 120 h, read-out: IC50, Proliferation): 0.16 µM | IC50 [2, 14]: 0.83 µM | IC50 [3, 12]: 0.15 µM | IC50 [3, 13]: 0.45 µM | IC50 ([4]; Homo sapiens, U-266, 120 h, read-out: IC50, Proliferation): 0.32 µM | IC50 ([4]; Homo sapiens, U-266, 120 h, read-out: IC50, Viability): 4.29 µM | IC50 [5, 12]: 0.05 µM | IC50 [5, 13]: 0.57 µM | IC50 ([6]; Homo sapiens, OPM-2, 120 h, read-out: IC50, Proliferation): 0.37 µM | IC50 ([6]; Homo sapiens, OPM-2, 120 h, read-out: IC50, Viability): 0.51 µM | IC50 ([7]; KMS-34, 120 h, read-out: IC50, Proliferation): 0.07 µM | IC50 ([7]; KMS-34, 120 h, read-out: IC50, Viability): 0.12 µM | IC50 [8, 14]: 0.85 µM | IC50 ([9]; Homo sapiens, NCI-H929, 120 h, read-out: IC50, Proliferation): 0.13 µM | IC50 ([9]; Homo sapiens, NCI-H929, 120 h, read-out: IC50, Viability): 0.4 µM | survival ([10]; 0.5 to 5 mg/kg QD oral, FIG. 16): significantly prolonged the life | apoptosis induction [11]: induce apoptosis
